# Entries after “also recorded” stand apart in the source; their conditions may differ.
# Columns and labels:
# db/db mice [1] = experiment: HbA1c and blood glucose after 54 day treatment of db/db mice (SU secondary drug failure model); type: in vivo, mouse; settings: 3 mg/kg p.o. daily, day 54, female db/db mice; for glucose values compared to control: semi-fed
# Source text: Sulfonylurea (SU) like glibenclamide are one of the most frequently used drugs in diabetes treatment. Long-term treatment with SU causes elevated basal insulin secretion and decreased glucose-stimulated insulin secretion. These characteristics may play an important role for the development of hypoglycemia and secondary drug failure. […] In addition, correlating with age of the animals pancreatic β-cells of aging db/db mice fails to compensate the high glucose excursion with enhanced insulin secretion. Therefore this model is appropriate to study the glibenclamide induced secondary drug failure in comparison to a DPP-4 inhibitor (e.g. BI 1356). Female db/db mice at 5 weeks of age, are obtained from Charles River, Germany. Animals are housed in groups of 5-6 animals under a 12:[…] cycle (lights on at 04:00 AM and lights off at 04:00 PM) in temperature and humidity controlled rooms. All animals have free access to regular rodent chow (Altromin standard #1324 chow, Denmark) and water ad libitum. The compound solutions are administered daily at 08.00 AM on experimental days 0-59 by per oral gavage using a gastric tube connected to a 3 ml syringe (Luer-lockTM, Becton). Groups of 12 animals are used: vehicle, 0.5% Natrosol; BI 1356 3 mg/kg; glibenclamide 3 mg/kg. Body weight food intake and water intake is recorded daily for the first two and twice weekly for the remaining period. On experimental day 54 blood glucose and HbA1c levels are determined in semi-fed state, on day 59 an OGTT (2 g/kg) is performed. Blood samples for determination of “fed” levels blood glucose and HbA1c are performed at 10.00 AM on day 54. Prior to blood sampling animals are transferred to clean cages with no food two hours before blood sampling. At day 59 an OGTT (2 g/kg) is performed following an over-night fast of the animals and insulin is detected at t=15 min. For each data point, 10 μl blood is drawn from the tip of the tail into a microcapillary tube and measured using a Biosen S line glucose analyzer. HbA1c: are measured using a standard enzyme assay kit on a fully automated analyzer (Bayer).
# db/db mice [2] = experiment: Insulin during OGTT (2 g/kg) on day 59 in db/db mice; type: in vivo, mouse; settings: 3 mg/kg p.o. daily, day 59, OGTT 2 g/kg, t=15 min
# Source text: Sulfonylurea (SU) like glibenclamide are one of the most frequently used drugs in diabetes treatment. Long-term treatment with SU causes elevated basal insulin secretion and decreased glucose-stimulated insulin secretion. These characteristics may play an important role for the development of hypoglycemia and secondary drug failure. […] In addition, correlating with age of the animals pancreatic β-cells of aging db/db mice fails to compensate the high glucose excursion with enhanced insulin secretion. Therefore this model is appropriate to study the glibenclamide induced secondary drug failure in comparison to a DPP-4 inhibitor (e.g. BI 1356).
# Female db/db mice at 5 weeks of age, are obtained from Charles River, Germany. […]
# The compound solutions are administered daily at 08.00 AM on experimental days 0-59 by per oral gavage using a gastric tube connected to a 3 ml syringe (Luer-lock™, Becton). […] Body weight food intake and water intake is recorded daily for the first two and twice weekly for the remaining period. On experimental day 54 blood glucose and HbA1c levels are determined in semi-fed state, on day 59 an OGTT (2 g/kg) is performed.
# Blood samples for determination of “fed” levels blood glucose and HbA1c are performed at 10.00 AM on day 54. […] At day 59 an OGTT (2 g/kg) is performed following an over-night fast of the animals and insulin is detected at t=15 min. […]
Compound,HbA1c compared to control (db/db mice [1]),glucose values compared to control (db/db mice [1]),"form and route of excretion (human, in vivo)",excretion via the kidney (therapeutic oral dose levels),increase in insulin during OGTT (db/db mice [2])
CC#CCn1c(N2CCC[C@@H](N)C2)nc2c1c(=O)n(Cc1nc(C)c3ccccc3n1)c(=O)n2C [BI 1356],improves; also recorded: superior to glibenclamide,improves; also recorded: superior to glibenclamide,primarily excreted unchanged via the bile,< 7 % of the administered oral dose,able to respond to the increased glucose levels with an up-regulation of insulin; also recorded: superior to glibenclamide
"COc1ccc(Cl)cc1C(=O)NCCc1ccc(S(=O)(=O)NC(=O)NC2CCCCC2)cc1 [glibenclamide, reference compound]",impairs,impairs,–,–,–

# From patent publication US11911388B2, “Treatment for diabetes in patients with insufficient glycemic control despite therapy with an oral or non-oral antidiabetic drug” (Boehringer Ingelheim International GmbH, priority 2008, dated 2024)
